From ChEMBL document CHEMBL3132769, “Fragment growing to retain or alter the selectivity of anchored kinase hinge-binding fragments” (Medchemcomm, 2014)

Legend:
[1] = target: T1, Testis-specific serine/threonine-protein kinase 1 (Homo sapiens) (UniProt Q9BXA7); assay: Inhibition of human full length TSSK1 expressed in baculovirus assessed as substrate phosphorylation using fluorescence-labelled peptides as substrate at 0.2 uM after 90 mins by microfluidic peptide phosphorylation assay
T1 sequence (whole entry): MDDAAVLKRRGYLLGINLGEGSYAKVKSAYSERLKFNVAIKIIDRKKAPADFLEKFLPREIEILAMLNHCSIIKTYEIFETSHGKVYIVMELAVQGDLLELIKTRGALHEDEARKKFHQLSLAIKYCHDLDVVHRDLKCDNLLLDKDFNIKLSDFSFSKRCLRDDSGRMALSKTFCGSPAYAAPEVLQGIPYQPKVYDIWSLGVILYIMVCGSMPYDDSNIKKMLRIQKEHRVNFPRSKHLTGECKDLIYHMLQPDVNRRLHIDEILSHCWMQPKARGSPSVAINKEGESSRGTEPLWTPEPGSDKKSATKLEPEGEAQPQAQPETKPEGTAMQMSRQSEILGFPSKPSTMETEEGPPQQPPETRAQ

[2] = target: Tyrosine-protein kinase HCK (Homo sapiens) (UniProt P08631); assay: Inhibition of human HCK catalytic domain expressed in baculovirus assessed as substrate phosphorylation using fluorescence-labelled peptides as substrate at 420 uM after 90 mins by microfluidic peptide phosphorylation assay
[3] = target: Tyrosine-protein kinase Lyn (Homo sapiens) (UniProt P07948); assay: Inhibition of human full length LYN expressed in baculovirus assessed as substrate phosphorylation using fluorescence-labelled peptides as substrate at 420 uM after 90 mins by microfluidic peptide phosphorylation assay
[4] = target: Serine/threonine-protein kinase pim-1 (Homo sapiens) (UniProt P11309); assay: Inhibition of human full length PIM1 expressed in baculovirus assessed as substrate phosphorylation using fluorescence-labelled peptides as substrate at 420 uM after 90 mins by microfluidic peptide phosphorylation assay
[5] = tested on: Fibroblast growth factor receptor 2 (Homo sapiens), P21802 [N549H]; assay: Inhibition of human FGFR2 N549H mutant catalytic domain expressed in baculovirus assessed as substrate phosphorylation using fluorescence-labelled peptides as substrate at 2 uM after 90 mins by microfluidic peptide phosphorylation assay
[6] = target: Cyclin-dependent kinase 2 (Homo sapiens) (UniProt P24941); assay: Inhibition of human full length CDK2 expressed in baculovirus assessed as substrate phosphorylation using fluorescence-labelled peptides as substrate at 0.1 uM after 90 mins by microfluidic peptide phosphorylation assay
[7] = target: Serine/threonine-protein kinase MARK2 (Homo sapiens) (UniProt Q7KZI7); assay: Inhibition of human full length MARK2 expressed in baculovirus assessed as substrate phosphorylation using fluorescence-labelled peptides as substrate at 0.1 uM after 90 mins by microfluidic peptide phosphorylation assay
[8] = target: T2, Protein kinase C zeta type (Homo sapiens) (UniProt Q05513); assay: Inhibition of human full length PKC zeta expressed in baculovirus assessed as substrate phosphorylation using fluorescence-labelled peptides as substrate at 0.1 uM after 90 mins by microfluidic peptide phosphorylation assay
T2 sequence (whole entry): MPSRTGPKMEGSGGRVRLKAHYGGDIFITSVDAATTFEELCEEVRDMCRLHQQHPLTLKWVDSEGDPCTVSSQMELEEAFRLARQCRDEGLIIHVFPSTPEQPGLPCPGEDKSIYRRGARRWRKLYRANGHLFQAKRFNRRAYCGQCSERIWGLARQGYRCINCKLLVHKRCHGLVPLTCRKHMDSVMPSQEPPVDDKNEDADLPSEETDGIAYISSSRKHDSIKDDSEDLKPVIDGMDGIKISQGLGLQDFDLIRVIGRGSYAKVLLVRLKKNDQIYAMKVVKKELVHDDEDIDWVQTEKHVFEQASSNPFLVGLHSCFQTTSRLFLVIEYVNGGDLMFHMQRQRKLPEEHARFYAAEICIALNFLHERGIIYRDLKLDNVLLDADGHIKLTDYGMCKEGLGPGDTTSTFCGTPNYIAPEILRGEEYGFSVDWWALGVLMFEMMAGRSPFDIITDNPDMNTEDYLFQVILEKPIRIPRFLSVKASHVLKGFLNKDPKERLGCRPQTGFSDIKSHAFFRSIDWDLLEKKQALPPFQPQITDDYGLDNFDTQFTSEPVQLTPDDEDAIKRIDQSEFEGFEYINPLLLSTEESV

[9] = target: RAC-alpha serine/threonine-protein kinase (Homo sapiens) (UniProt P31749); details: 0.1 uM
Description: Inhibition of human AKT1 catalytic domain expressed in baculovirus assessed as substrate phosphorylation using fluorescence-labelled peptides as substrate at 0.1 uM after 90 mins by microfluidic peptide phosphorylation assay

[10] = target: Ribosomal protein S6 kinase alpha-4 (Homo sapiens) (UniProt O75676); assay: Inhibition of human full length MSK2 expressed in baculovirus assessed as substrate phosphorylation using fluorescence-labelled peptides as substrate at 0.1 uM after 90 mins by microfluidic peptide phosphorylation assay
[11] = target: Protein kinase C gamma type (Homo sapiens) (UniProt P05129); assay: Inhibition of human truncated PKC gamma expressed in baculovirus assessed as substrate phosphorylation using fluorescence-labelled peptides as substrate at 0.1 uM after 90 mins by microfluidic peptide phosphorylation assay
[12] = target: T3, Serine/threonine-protein kinase Sgk1 (Homo sapiens) (UniProt O00141); assay: Inhibition of human truncated SGK1 expressed in baculovirus assessed as substrate phosphorylation using fluorescence-labelled peptides as substrate at […] after 90 mins by microfluidic peptide phosphorylation assay
T3 sequence (whole entry): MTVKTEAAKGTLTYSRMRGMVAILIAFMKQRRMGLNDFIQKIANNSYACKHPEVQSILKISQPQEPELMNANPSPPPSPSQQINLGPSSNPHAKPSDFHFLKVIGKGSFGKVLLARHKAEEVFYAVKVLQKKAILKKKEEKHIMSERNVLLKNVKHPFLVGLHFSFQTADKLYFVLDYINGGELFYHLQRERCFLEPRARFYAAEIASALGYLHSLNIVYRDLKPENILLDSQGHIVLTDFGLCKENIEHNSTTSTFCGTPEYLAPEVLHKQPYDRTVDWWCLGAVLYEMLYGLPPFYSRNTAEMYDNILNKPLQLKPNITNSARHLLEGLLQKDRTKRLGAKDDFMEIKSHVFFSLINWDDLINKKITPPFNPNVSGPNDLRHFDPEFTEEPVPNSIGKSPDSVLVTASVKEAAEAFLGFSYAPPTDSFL

[13] = target: Receptor-type tyrosine-protein kinase FLT3 (Homo sapiens) (UniProt P36888); assay: Inhibition of human FLT3 catalytic domain expressed in baculovirus assessed as substrate phosphorylation using fluorescence-labelled peptides as substrate at 0.06 uM after 90 mins by microfluidic peptide phosphorylation assay
[14] = target: Protein kinase C delta type (Homo sapiens) (UniProt Q05655); assay: Inhibition of human truncated PKC delta expressed in baculovirus assessed as substrate phosphorylation using fluorescence-labelled peptides as substrate at 8 uM after 90 mins by microfluidic peptide phosphorylation assay
[15] = target: Protein kinase C eta type (Homo sapiens) (UniProt P24723); assay: Inhibition of human truncated PKC eta expressed in baculovirus assessed as substrate phosphorylation using fluorescence-labelled peptides as substrate at 1000 uM after 90 mins by microfluidic peptide phosphorylation assay

Sequence of RAC-alpha serine/threonine-protein kinase (Homo sapiens) (P31749 whole entry): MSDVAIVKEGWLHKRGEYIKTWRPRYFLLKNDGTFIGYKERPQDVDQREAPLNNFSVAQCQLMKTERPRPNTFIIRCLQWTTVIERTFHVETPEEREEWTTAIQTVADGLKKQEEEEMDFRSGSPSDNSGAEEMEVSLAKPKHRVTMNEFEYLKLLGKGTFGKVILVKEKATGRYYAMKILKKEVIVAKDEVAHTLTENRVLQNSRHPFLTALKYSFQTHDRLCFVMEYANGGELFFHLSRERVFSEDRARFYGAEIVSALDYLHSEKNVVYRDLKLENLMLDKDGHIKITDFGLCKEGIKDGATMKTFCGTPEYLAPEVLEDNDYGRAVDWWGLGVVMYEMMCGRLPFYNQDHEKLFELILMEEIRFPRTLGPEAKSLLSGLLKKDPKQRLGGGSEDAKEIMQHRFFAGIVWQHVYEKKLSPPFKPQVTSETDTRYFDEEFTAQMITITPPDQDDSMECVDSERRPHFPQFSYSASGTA
Sequence of Tyrosine-protein kinase Lyn (Homo sapiens) (P07948 2-512 limits assumed): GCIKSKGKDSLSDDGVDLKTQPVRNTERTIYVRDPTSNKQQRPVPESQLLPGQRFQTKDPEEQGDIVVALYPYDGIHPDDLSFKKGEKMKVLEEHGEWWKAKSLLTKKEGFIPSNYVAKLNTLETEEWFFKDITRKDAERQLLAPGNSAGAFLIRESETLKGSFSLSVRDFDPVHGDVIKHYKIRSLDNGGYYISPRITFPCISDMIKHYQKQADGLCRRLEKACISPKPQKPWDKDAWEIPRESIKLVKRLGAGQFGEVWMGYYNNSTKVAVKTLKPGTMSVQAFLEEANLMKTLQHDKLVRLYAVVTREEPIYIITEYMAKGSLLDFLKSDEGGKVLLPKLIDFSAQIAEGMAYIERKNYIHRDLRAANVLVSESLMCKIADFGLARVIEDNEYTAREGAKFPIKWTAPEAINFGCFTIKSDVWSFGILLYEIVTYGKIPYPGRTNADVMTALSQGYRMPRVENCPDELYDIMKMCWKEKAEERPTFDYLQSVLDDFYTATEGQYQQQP
Sequence of Protein kinase C delta type (Homo sapiens) (Q05655 whole entry, looked up, the tested form may be a part): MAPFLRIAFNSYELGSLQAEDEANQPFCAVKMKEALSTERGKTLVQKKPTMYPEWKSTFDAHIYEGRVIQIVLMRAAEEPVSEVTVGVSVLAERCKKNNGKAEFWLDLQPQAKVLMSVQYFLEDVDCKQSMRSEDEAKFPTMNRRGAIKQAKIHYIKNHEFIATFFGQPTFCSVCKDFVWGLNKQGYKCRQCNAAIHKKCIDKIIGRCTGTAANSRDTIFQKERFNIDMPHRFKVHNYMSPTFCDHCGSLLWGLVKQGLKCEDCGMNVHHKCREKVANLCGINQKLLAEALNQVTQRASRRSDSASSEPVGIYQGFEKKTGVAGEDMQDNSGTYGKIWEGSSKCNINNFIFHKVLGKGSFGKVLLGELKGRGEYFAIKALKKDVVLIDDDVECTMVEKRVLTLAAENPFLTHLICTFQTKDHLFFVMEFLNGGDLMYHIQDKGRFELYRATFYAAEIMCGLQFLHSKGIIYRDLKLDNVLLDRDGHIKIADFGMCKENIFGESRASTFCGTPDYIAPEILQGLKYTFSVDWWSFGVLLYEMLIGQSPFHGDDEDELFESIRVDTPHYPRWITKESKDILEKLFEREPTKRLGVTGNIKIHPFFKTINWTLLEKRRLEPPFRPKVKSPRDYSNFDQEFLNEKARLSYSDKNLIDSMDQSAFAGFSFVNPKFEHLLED
Sequence of Serine/threonine-protein kinase MARK2 (Homo sapiens) (Q7KZI7 whole entry): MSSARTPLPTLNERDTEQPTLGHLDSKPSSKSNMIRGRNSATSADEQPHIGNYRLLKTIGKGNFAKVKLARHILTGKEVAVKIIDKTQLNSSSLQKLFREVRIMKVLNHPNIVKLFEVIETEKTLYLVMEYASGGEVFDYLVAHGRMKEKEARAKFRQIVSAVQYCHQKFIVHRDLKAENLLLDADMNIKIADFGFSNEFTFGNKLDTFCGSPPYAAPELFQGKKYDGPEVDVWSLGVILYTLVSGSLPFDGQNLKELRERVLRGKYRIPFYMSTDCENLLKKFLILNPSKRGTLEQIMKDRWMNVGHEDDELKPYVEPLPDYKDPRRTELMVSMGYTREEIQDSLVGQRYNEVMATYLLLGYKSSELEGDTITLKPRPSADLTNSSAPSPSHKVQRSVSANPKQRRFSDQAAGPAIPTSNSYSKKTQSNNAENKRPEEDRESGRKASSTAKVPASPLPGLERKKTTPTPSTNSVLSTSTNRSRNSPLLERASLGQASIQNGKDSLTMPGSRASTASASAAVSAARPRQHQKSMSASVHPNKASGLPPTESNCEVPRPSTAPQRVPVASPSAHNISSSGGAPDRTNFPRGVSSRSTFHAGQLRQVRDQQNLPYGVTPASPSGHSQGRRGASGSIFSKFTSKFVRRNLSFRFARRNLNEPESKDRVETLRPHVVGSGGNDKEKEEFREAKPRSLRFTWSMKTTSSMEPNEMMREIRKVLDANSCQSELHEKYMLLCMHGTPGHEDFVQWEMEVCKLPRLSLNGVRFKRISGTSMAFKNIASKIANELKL
Sequence of Ribosomal protein S6 kinase alpha-4 (Homo sapiens) (O75676 whole entry, looked up, the tested form may be a part): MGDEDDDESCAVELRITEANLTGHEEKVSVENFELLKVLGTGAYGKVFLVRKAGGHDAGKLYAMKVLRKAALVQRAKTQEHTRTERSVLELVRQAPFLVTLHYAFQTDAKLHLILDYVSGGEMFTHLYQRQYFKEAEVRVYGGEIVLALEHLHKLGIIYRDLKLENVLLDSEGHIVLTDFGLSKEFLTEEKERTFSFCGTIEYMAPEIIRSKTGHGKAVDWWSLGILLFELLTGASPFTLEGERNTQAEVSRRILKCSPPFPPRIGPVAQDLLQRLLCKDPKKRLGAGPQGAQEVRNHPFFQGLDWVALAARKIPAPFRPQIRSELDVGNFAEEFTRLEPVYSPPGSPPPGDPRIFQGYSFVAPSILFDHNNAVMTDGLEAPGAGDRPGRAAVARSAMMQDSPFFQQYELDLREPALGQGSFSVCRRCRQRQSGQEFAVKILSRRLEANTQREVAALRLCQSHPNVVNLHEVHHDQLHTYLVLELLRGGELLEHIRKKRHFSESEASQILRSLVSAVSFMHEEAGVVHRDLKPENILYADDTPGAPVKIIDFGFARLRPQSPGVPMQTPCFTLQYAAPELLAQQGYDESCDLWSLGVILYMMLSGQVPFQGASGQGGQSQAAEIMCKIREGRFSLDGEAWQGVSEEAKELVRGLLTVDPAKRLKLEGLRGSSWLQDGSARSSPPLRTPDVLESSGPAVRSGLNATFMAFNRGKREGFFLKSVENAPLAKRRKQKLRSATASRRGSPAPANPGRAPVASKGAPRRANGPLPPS
Sequence of Fibroblast growth factor receptor 2 (Homo sapiens), P21802 [N549H] (P21802 whole entry N549H, the tested form may be a part): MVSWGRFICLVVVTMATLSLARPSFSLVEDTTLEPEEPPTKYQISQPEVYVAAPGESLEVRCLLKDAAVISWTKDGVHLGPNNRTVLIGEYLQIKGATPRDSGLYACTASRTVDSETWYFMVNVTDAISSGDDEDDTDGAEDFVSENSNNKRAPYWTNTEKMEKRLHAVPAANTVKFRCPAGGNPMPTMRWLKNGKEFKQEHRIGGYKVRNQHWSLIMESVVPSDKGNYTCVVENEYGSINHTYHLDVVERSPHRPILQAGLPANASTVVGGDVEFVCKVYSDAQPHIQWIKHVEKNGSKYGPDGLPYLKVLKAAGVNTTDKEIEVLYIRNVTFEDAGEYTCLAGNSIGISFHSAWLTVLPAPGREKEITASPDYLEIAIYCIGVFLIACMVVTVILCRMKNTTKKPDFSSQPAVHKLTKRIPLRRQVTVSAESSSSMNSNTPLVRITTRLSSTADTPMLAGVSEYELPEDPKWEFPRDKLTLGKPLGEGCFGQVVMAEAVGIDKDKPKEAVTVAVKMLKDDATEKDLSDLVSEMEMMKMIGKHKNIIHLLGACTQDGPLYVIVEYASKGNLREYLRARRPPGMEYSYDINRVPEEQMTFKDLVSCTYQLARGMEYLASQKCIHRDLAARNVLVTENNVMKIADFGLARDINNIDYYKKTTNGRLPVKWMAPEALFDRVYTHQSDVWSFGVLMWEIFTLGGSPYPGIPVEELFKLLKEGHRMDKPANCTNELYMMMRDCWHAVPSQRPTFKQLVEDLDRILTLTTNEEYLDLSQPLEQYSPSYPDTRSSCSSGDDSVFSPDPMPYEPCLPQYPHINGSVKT

Structure (SMILES): Clc1ccc(C2(c3ccc(-c4ncnc5[nH]cnc45)cc3)CCNCC2)cc1
- inhibition [1]: 67%

Structure (SMILES): c1nc(N2CCOCC2)c2nc[nH]c2n1
- inhibition [2]: 69.5%
- inhibition [3]: 68%
- inhibition [4]: 31.5%

Structure (SMILES): NC1CCN(c2ncnc3[nH]ccc23)CC1
- inhibition [5]: 1%

Structure (SMILES): C[C@H](CN(C)C)Oc1nc(Nc2cc3cccc(Cl)c3cn2)cnc1C#N
- inhibition [6]: 1.5%
- inhibition [7]: 2%
- inhibition [8]: 19%
- inhibition [9]: 0%
- inhibition [10]: 13.5%
- inhibition [11]: 6%

Structure (SMILES): COC(=O)c1cnc(Nc2cnc(C#N)cn2)cc1NCC1CCNCC1
- inhibition [12]: 4.5%

Structure (SMILES): NC1(Cc2ccc(Cl)cc2)CCN(c2ncnc3[nH]ccc23)CC1
- inhibition [13]: 0%

Structure (SMILES): NCC1CCN(c2ncnc3[nH]ccc23)CC1
- inhibition [14]: 67%

Structure (SMILES): c1cnc2[nH]ccc2c1
- inhibition [15]: 52%
